Laboratory results as given in patent publication US9067871B2, “Aminotetraline derivatives, pharmaceutical compositions containing them, and their use in therapy” (ABBVIE DEUTSCHLAND GMBH & CO KG, priority 2009, dated 2015).
Where a name gives a salt, the structure may show the parent alone. Read-outs that look alike come from different tables or passages of the source.

Columns and labels:
human GlyT1c = human GlyT1c (Homo sapiens (Human), UniProt P48067); assay: [3H]-Glycine uptake into recombinant CHO cells expressing human GlyT1; type: cell-based
human GlyT1c, sequence (P48067 whole entry): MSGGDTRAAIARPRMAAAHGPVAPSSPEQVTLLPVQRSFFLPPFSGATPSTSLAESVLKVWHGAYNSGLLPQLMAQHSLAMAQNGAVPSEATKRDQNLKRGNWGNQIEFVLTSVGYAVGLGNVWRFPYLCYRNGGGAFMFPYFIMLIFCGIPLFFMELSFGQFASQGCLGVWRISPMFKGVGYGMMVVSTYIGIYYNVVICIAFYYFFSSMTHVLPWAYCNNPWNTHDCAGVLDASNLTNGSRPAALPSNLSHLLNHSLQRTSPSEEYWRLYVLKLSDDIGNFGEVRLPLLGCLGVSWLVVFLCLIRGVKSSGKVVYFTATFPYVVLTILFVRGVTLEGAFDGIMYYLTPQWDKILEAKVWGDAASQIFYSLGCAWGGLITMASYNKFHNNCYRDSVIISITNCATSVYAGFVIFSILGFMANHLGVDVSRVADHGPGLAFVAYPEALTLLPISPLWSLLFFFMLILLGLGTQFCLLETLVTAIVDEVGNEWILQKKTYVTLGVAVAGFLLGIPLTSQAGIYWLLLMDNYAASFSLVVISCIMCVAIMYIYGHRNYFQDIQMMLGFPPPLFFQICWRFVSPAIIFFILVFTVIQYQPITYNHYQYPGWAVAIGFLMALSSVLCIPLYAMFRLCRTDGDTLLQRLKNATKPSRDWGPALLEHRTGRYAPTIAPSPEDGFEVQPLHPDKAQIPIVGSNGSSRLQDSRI
Method in brief: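 Recombinant CHO cells stably expressing hGlyT1c, grown 24 h to sub-confluency on scintillating plates, given inhibitor or vehicle plus 200 nM (final) [3H]-glycine in HBSS. Uptake counted continuously by solid-phase scintillation for up to 3 h; nonspecific uptake defined with 10 μM Org24598.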

human GlyT1c transporter = human GlyT1c transporter (Homo sapiens (Human), UniProt P48067); assay: Radioligand binding assay using recombinant CHO cell membranes expressing human GlyT1; conditions: read-out: radioligand binding Kiapp
human GlyT1c transporter, sequence (P48067 whole entry): as above
Source text: 2. Radioligand binding assays using recombinant CHO cell membranes expressing human GlyT1: […]

[1] = hGlyT1c_5_CHO cells, 200 nM [3H]-glycine
[2] = human GlyT1c-expressing CHO cell membranes

Row | SMILES | IC50 (human GlyT1c; [1]) | Ki (human GlyT1c transporter; [2]) | IC50 (human GlyT1c) | Ki (human GlyT1c transporter)
1 | Cc1ccc(S(=O)(=O)NCCOc2ccc3c(c2)C(Cc2cccc(Cl)c2)C(N)CC3)s1 (stereo not shown) [Example 68, 5-Methyl-thiophene-2-sulfonic acid {2-[7-amino-8-(3-chloro-benzyl)-5,6,7,8-tetrahydronaphthalen-2-yloxy]-ethyl}-amide hydrochloride] | ≤ 10 µM | ≤ 1 µM | – | –
2 | Cc1cc(S(=O)(=O)NCCOc2ccc3c(c2)C(Cc2cccc(Cl)c2)C(N)CC3)c(C)s1 (stereo not shown) [Example 69, 2,5-Dimethyl-thiophene-3-sulfonic acid {2-[7-amino-8-(3-chloro-benzyl)-5,6,7,8-tetrahydronaphthalen-2-yloxy]-ethyl}-amide hydrochloride] | ≤ 10 µM | ≤ 1 µM | – | –
3 | CCS(=O)(=O)NCCOc1ccc2c(c1)C(Cc1cccc(Cl)c1)C(N)CC2 (stereo not shown) [Example 70, Ethanesulfonic acid {2-[7-amino-8-(3-chloro-benzyl)-5,6,7,8-tetrahydro-naphthalen-2-yloxy]-ethyl}-amide hydrochloride] | – | – | ≤ 1 µM | ≤ 0.1 µM
4 | Cn1cc(S(=O)(=O)NCCOc2ccc3c(c2)C(Cc2ccc(Cl)cc2Cl)C(N)CC3)cn1 (stereo not shown) [Example 71, 1-Methyl-1H-pyrazole-4-sulfonic acid {2-[7-amino-8-(2,4-dichloro-benzyl)-5,6,7,8-tetrahydro-naphthalen-2-yloxy]-ethyl}-amide hydrochloride] | ≤ 0.1 µM | ≤ 0.01 µM | – | –
5 | NC1CCc2ccc(OCCNS(=O)(=O)c3cccs3)cc2C1Cc1ccc(Cl)cc1Cl (stereo not shown) [Example 72, Thiophene-2-sulfonic acid {2-[7-amino-8-(2,4-dichloro-benzyl)-5,6,7,8-tetrahydronaphthalen-2-yloxy]-ethyl}-amide hydrochloride] | ≤ 10 µM | ≤ 10 µM | – | –
6 | Cc1ccc(S(=O)(=O)NCCOc2ccc3c(c2)C(Cc2ccc(Cl)cc2Cl)C(N)CC3)s1 (stereo not shown) [Example 73, 5-Methyl-thiophene-2-sulfonic acid {2-[7-amino-8-(2,4-dichloro-benzyl)-5,6,7,8-tetrahydronaphthalen-2-yloxy]-ethyl}-amide hydrochloride] | ≤ 10 µM | ≤ 1 µM | – | –
7 | CCCS(=O)(=O)NCCOc1ccc2c(c1)C(Cc1ccc(Cl)cc1Cl)C(NC(=O)OCC)CC2 (stereo not shown) [Example 74, {1-(2,4-Dichloro-benzyl)-7-[2-(propane-1-sulfonylamino)-ethoxy]-1,2,3,4-tetrahydronaphthalen-2-yl}-carbamic acid ethyl ester] | ≤ 100 µM | ≥ 10 µM | – | –
8 | CCCS(=O)(=O)NCCOc1ccc2c(c1)C(Cc1ccc(Cl)cc1Cl)C(N)CC2 (stereo not shown) [Example 75, Propane-1-sulfonic acid {2-[7-amino-8-(2,4-dichloro-benzyl)-5,6,7,8-tetrahydronaphthalen-2-yloxy]-ethyl}-amide hydrochloride] | ≤ 10 µM | ≤ 1 µM | – | –
9 | CCCS(=O)(=O)N(C)CCOc1ccc2c(c1)C(Cc1ccc(Cl)cc1)C(NC(=O)OCC)CC2 (stereo not shown) [Example 76, (1-(4-Chloro-benzyl)-7-{2-[methyl-(propane-1-sulfonyl)-amino]-ethoxy}-1,2,3,4-tetrahydronaphthalen-2-yl)-carbamic acid ethyl ester] | ≤ 1000 µM | ≤ 100 µM | – | –
10 | CCCS(=O)(=O)N(C)CCOc1ccc2c(c1)C(Cc1ccc(Cl)cc1)C(N)CC2 (stereo not shown) [Example 77, Propane-1-sulfonic acid {2-[7-amino-8-(4-chloro-benzyl)-5,6,7,8-tetrahydro-naphthalen-2-yloxy]-ethyl}-methyl-amide hydrochloride] | ≤ 1 µM | ≤ 0.1 µM | – | –
11 | CCCS(=O)(=O)N(C)CCOc1ccc2c(c1)C(Cc1cccc(Cl)c1)C(NC(=O)OCC)CC2 (stereo not shown) [Example 78, (1-(3-Chloro-benzyl)-7-{2-[methyl-(propane-1-sulfonyl)-amino]-ethoxy}-1,2,3,4-tetrahydronaphthalen-2-yl)-carbamic acid ethyl ester] | ≤ 10 µM | ≤ 10 µM | – | –
12 | CCCS(=O)(=O)N(C)CCOc1ccc2c(c1)C(Cc1cccc(Cl)c1)C(N)CC2 (stereo not shown) [Example 79, Propane-1-sulfonic acid {2-[7-amino-8-(3-chloro-benzyl)-5,6,7,8-tetrahydronaphthalen-2-yloxy]-ethyl}-methyl-amide hydrochloride] | ≤ 1 µM | ≤ 0.1 µM | – | –
13 | CCOC(=O)NC1CCc2ccc(OCCNS(=O)(=O)c3cn(C)cn3)cc2C1Cc1cccc(Cl)c1 (stereo not shown) [Example 80, {1-(3-Chloro-benzyl)-7-[2-(1-methyl-1H-imidazole-4-sulfonylamino)-ethoxy]-1,2,3,4-tetrahydro-naphthalen-2-yl}-carbamic acid ethyl ester] | ≤ 1 µM | ≤ 1 µM | – | –
14 | CCOC(=O)NC1CCc2ccc(OCCNS(=O)(=O)c3cnn(C(F)F)c3)cc2C1Cc1cccc(Cl)c1 (stereo not shown) [Example 81, {1-(3-Chloro-benzyl)-7-[2-(1-difluoromethyl-1H-pyrazole-4-sulfonylamino)-ethoxy]-1,2,3,4-tetrahydro-naphthalen-2-yl}-carbamic acid ethyl ester] | ≥ 1000 µM | ≤ 10 µM | – | –
15 | CCCS(=O)(=O)N1CCC[C@@H]1COc1ccc2c(c1)C(Cc1cccc(Cl)c1)C(N)CC2 (stereo partly drawn) [Example 82, 1-(3-Chloro-benzyl)-7-[(R)-1-(propane-1-sulfonyl)-pyrrolidin-2-ylmethoxy]-1,2,3,4-tetrahydro-naphthalen-2-ylamine hydrochloride] | ≤ 1 µM | ≤ 0.1 µM | – | –
16 | CCCS(=O)(=O)N1CC(Oc2ccc3c(c2)C(Cc2cccc(Cl)c2)C(N)CC3)C1 (stereo not shown) [Example 83, 1-(3-Chloro-benzyl)-7-[1-(propane-1-sulfonyl)-azetidin-3-yloxy]-1,2,3,4-tetrahydronaphthalen-2-ylamine hydrochloride] | ≤ 10 µM | ≤ 1 µM | – | –
17 | CCS(=O)(=O)CCCOc1ccc2c(c1)C(Cc1cccc(Cl)c1)C(N)CC2 (stereo not shown) [Example 84, 1-(3-Chloro-benzyl)-7-(3-ethanesulfonyl-propoxy)-1,2,3,4-tetrahydro-naphthalen-2-ylamine hydrochloride] | – | – | ≤ 10 µM | ≤ 10 µM
